Test results reported in patent publication US20050101671A1, “Compounds and compositions for delivering active agents” (Emisphere Technologies, Inc., priority 1995, published 2005).

What was measured:
[1] = In vivo delivery of heparin by oral administration in rats, APTT (Table 6); set-up: species or system rat; conditions: heparin 100 mg/kg
Experimental: In a test tube, 900 mg of carrier were dissolved in 3 mL of propylene glycol, and 0.299 g of sodium heparin was dissolved in 3 mL of water. The solutions were mixed by vortex. Sodium hydroxide (10M) was added to the resulting mixture until a solution was obtained. The pH was then adjusted to 7.4±0.5 with concentrated hydrochloric acid, and the final solution was sonicated at 40° C. for 30 minutes.
A group of fasted, conscious rats were administered the dosing compositions by oral gavage. Blood samples were collected by cardiac puncture following the administration of ketamine (44 mg/kg). Heparin activity was determined by utilizing the activated partial thromboplastim time (APTT) according to the method of Henry, J. B., Clinical Diagnosis and Management by Laboratory Methods; Philadelphia. Pa.; W B Saunders (1979).
Heparin (100 mg/kg) was administered by oral gavage to rats, and heparin activity was determined according to the procedure of Example 44.

[2] = In vivo delivery of rhGH in rats (Table 1), serum rhGH by ELISA; set-up: species or system rat; conditions: oral, no carrier, rhGH 6 mg/kg
Experimental: Dosing compositions were prepared by mixing the modified amino acids and recombinant human growth hormone (rhGH) as listed in Table 1 below in a phosphate buffer solution at a pH of about 7-8.
Rats were administered the dosing composition by sublingual, oral gavage, intraduodenal administration, or colonic administration. Delivery was evaluated by using an ELISA assay for rhGH from Medix Biotech, Inc. For intracolonic administration, a sample was prepared and dosed to fasted rats at 25 mg/kg of carrier in a buffered solution containing propylene glycol (0-50%) and 1 mg/kg rhGH.

[3] = Delivery agent enhancement of rhGH bioavailability, subcutaneous administration in rats (Table 2); assay type: in vivo, rat; conditions: no delivery agent (0.0 mg/kg), rhGH alone (Comparative Example 16A)
Experimental: The delivery agents were reconstituted with distilled water and adjusted to pH 7.2-8.0 with either aqueous hydrochloric acid or aqueous sodium hydroxide. A stock solution of rhGH was prepared by mixing rhGH, D-mannitol and glycine and dissolving this mixture in 2% glycerol/water. The stock solution was then added to the delivery agent solution. Several delivery agent to active agent ratios were studied.
Male Sprague-Dawley rats weighing 200-250 g were fasted for 24 hours and administered ketamine (44 mg/kg) and chlorpromazine (1.5 mg/kg) 15 minutes prior to dosing. The rats were administered one of the dosing solutions described above by subcutaneous injection, intranasal instillation, or sublingual instillation. Blood samples were collected serially from the tail artery for serum calcium concentration determination or serum rhGH concentrations. The dose-of rhGH administered in these experiments was 0.
Serum rhGH concentrations were quantified by an rhGH enzyme immunoassay test kit.

O=C(O)CCCCCCCNC(=O)/C=C/c1ccccc1F [Compound XII]
Mean Peak APTT ([1]; carrier 300 mg/kg): 49.53 ± 17.1 s

Heparin [reference compound]
Mean Peak APTT ([1]; no carrier): 20.7 ± 0.17 s

rhGH: recombinant human growth hormone, active agent dosed alone as comparative example
Mean Peak Serum Levels of rhGH [2]: <10 ± 10 ng/mL
Peak Serum [rhGH] [3]: 4 ± 2 ng/mL
